Test results as given in patent US20100168136A1, “ALKYLSULFONE DERIVATIVES” (DAIICHI SANKYO COMPANY, LIMITED, priority 2007, published 2010).

Columns and labels:
[1] = test system: production of β-amyloid protein (Aβ) by E35 cells (human glioma H4 cells transfected with APP751 gene); test: Screening system using cells: inhibition of production/secretion of β-amyloid protein (Aβ sandwich ELISA of culture supernatant); format: cell-based; conditions: 24 hours with compound, Aβ in supernatant by ELISA, read-out: Activity (EC50, concentration at which production of Aβ is inhibited by 50%)
Experimental: Inhibitory activity of compounds against production of β-amyloid protein was measured by quantitative determination of the amount of β-amyloid protein (Aβ) secreted into the culture medium by sandwich enzyme-linked immunosorbent assay (ELISA) method, using E35 cells prepared by transfecting APP751 gene, which is a human wild type β-amyloid protein precursor protein gene, into human glioma cells (H4 cells).
That is, E35 cells were inoculated into a 96-well plate followed by cultivation in an incubator equilibrated with 5% carbon dioxide at 37° C., using Dulbecco's Modified Eagle's Medium supplemented with inactivated 10% fetal bovine serum as the medium. Test compounds dissolved in DMSO solution were added 24 hours after inoculation. Test compounds in DMSO solution were prepared to have a 2000-fold concentration of the final concentration, so that the DMSO concentration in the medium becomes 0.05%. After further cultivation for 24 hours, supernatant was collected, and was added to a 96-well plate for ELISA fixed with monoclonal antibody 25-1 against Aβ. Incubation was carried out at 4° C. for 16-20 hours. The plate was washed with phosphate buffer (pH 7.4), followed by addition of biotinylated monoclonal antibody MA32-40 against Aβ, and the plate was allowed to stand at 4° C. for 2 hours. After the plate was washed with phosphate buffer again, streptavidin conjugated alkaline phosphatase was added. Biotin was allowed to conjugate with streptavidin, and then the plate was washed with phosphate buffer. Blue Phos (KPL Inc.) was added to the plate, and then after incubation for an appropriate period of time, absorbance was measured for each of the wells. The amount of Aβ contained in the supernatant of conditioned medium was obtained from a calibration curve which was prepared separately. The concentration at which production of Aβ is inhibited by 50% (EC50), when compared with the control cells without the addition of the compound, was calculated. Here, 25-1 antibody and MA32-40 antibody used in ELISA are mouse monoclonal antibodies derived from hybridoma cell clone cell lines, which specifically recognize each antigen which was prepared and selected in accordance with a standard method by using Aβ25-35 and Aβ1-8 as antigens, respectively.
Results for the evaluation made by the aforementioned assay with respect to compound (I) of the present invention are shown in Table 1. Notation of ++++ is provided when EC50 is 5 nM or lower, +++ when 5-50 nM, and ++ when 50-500 nM.

Row | SMILES | melting point | EC50 [1] [nM]
1 | Cc1cc(C(N)=O)ncc1C(SCCC=C(F)F)c1c(F)ccc(F)c1F (stereo not drawn) | 97 to 98 °C | –
2 | Cc1cc(C(N)=O)ncc1C(c1c(F)ccc(F)c1F)S(=O)(=O)CCC(F)(F)F (stereo not drawn) [Example 3, 4-Methyl-5-[(2,3,6-trifluorophenyl)[(3,3,3-trifluoropropyl)sulfonyl]methyl]pyridine-2-carboxamide] | 190 to 191 °C | 50 to 500
3 | Cc1cc(C(N)=O)ncc1C(c1c(F)ccc(F)c1F)S(=O)(=O)CC1CCC1 (stereo not drawn) | 214 to 215 °C | –
4 | Cc1cc(C(=O)NCCO)ncc1C(c1c(F)ccc(F)c1F)S(=O)(=O)CCC(F)(F)F (stereo not drawn) | 146 to 147 °C | –
5 | Cc1cc(C(N)=O)ncc1C(c1c(F)ccc(F)c1F)S(=O)(=O)CCC(C)(F)F (stereo not drawn) [Example 10, 5-[[(3,3-Difluorobutyl)sulfonyl](2,3,6-trifluorophenyl)methyl]-4-methylpyridine-2-carboxamide] | 165 to 166 °C | 50 to 500
6 | Cc1cc(C(N)=O)ncc1C(c1c(F)ccc(F)c1F)S(=O)(=O)CC1CC(F)(F)C1 (stereo not drawn) | 205 to 207 °C | –
7 | Cc1cc(C(N)=O)ncc1C(c1c(F)ccc(F)c1F)S(=O)(=O)CC=C(F)F (stereo not drawn) [Example 37, 5-[[(3,3-Difluoroprop-2-en-1-yl)sulfonyl](2,3,6-trifluorophenyl)methyl]-4-methylpyridine-2-carboxamide] | 171 to 172 °C | 50 to 500
8 | Nc1cc(C(c2c(F)ccc(F)c2F)S(=O)(=O)CCC(F)(F)F)c(Cl)cn1 (stereo not drawn) [Example 48, 5-Chloro-4-[(2,3,6-trifluorophenyl)[(3,3,3-trifluoropropyl)sulfonyl]methyl]pyridin-2-amine] | 155 to 159 °C | 5 to 50
9 | NC(=O)c1cc(C(c2c(F)ccc(F)c2F)S(=O)(=O)CCC(F)(F)F)c(Cl)cn1 (stereo not drawn) [Example 45, 5-Chloro-4-[(2,3,6-trifluorophenyl)[(3,3,3-trifluoropropyl)sulfonyl]methyl]pyridine-2-carboxamide] | 237 to 239 °C | 50 to 500
10 | Cc1cc(C(=O)NCO)ncc1C(c1c(F)ccc(F)c1F)S(=O)(=O)CCC(C)(F)F (stereo not drawn) | 161 to 161.5 °C | –
11 | O=c1cc(O)nc2cc(C(c3c(F)ccc(F)c3F)S(=O)(=O)CCC(F)(F)F)c(Cl)cn12 (stereo not drawn) [Example 49, 7-Chloro-2-hydroxy-8-[(2,3,6-trifluorophenyl)[(3,3,3-trifluoropropyl)sulfonyl]methyl]-4H-pyrido[1,2-a]pyrimidin-4-one] | 264 °C (dec.) | 5 to 50
12 | Cc1cc(C(N)=O)ncc1C(c1c(F)ccc(F)c1F)S(=O)(=O)CCC(Cl)(Cl)Cl (stereo not drawn) [Example 18, 4-Methyl-5-[[(3,3,3-trichloropropyl)sulfonyl](2,3,6-trifluorophenyl)methyl]pyridine-2-carboxamide] | 173 to 175 °C | 50 to 500
13 | Cc1cc(C(=O)NCO)ncc1C(c1c(F)ccc(F)c1F)S(=O)(=O)CCC(F)(F)C(F)(F)F (stereo not drawn) | 126 to 128 °C | –
14 | Cc1cc(C(N)=O)ncc1C(c1c(F)ccc(F)c1F)S(=O)(=O)CCC(F)(F)Cl (stereo not drawn) [Example 34, 5-[[(3-Chloro-3,3-difluoropropyl)sulfonyl](2,3,6-trifluorophenyl)methyl]-4-methylpyridine-2-carboxamide] | 181 to 183 °C | 5 to 50
15 | O=c1[nH]nc2cc(C(c3c(F)ccc(F)c3F)S(=O)(=O)CCC(F)(F)F)c(Cl)cn12 (stereo not drawn) [Example 54, 6-Chloro-7-[(2,3,6-trifluorophenyl)[(3,3,3-trifluoropropyl)sulfonyl]methyl][1,2,4]triazolo[4,3-a]pyridin-3(2H)-one] | 209 to 211 °C | 5 to 50
16 | Cc1cc(C(=O)N(C)C)ncc1C(c1c(F)ccc(F)c1F)S(=O)(=O)CCC(F)(F)F (stereo not drawn) | 203 to 204 °C | –
17 | CCCCS(=O)(=O)C(c1cnc(C(N)=O)cc1C)c1c(F)ccc(F)c1F (stereo not drawn) [Example 15, 5-[(Butylsulfonyl)(2,3,6-trifluorophyenyl)methyl]-4-methylpyridine-2-carboxamide] | 203 to 204 °C | 50 to 500
18 | Cc1cc(C(N)=O)ncc1C(c1c(F)ccc(F)c1F)S(=O)(=O)CCCCl (stereo not drawn) [Example 30, 5-[[(3-Chloropropyl)sulfonyl](2,3,6-trifluorophenyl)methyl]-4-methylpyridine-2-carboxamide] | 197 to 199 °C | 50 to 500
19 | Cc1cc(C(N)=O)ncc1C(c1c(F)ccc(F)c1F)S(=O)(=O)CC(C(F)(F)F)C(F)(F)F (stereo not drawn) | 194 to 196 °C | –
20 | Cc1cc(C(=O)NCO)ncc1C(c1c(F)ccc(F)c1F)S(=O)(=O)CCC(F)(F)F (stereo not drawn) [Example 4, N-(Hydroxymethyl)-4-methyl-5-[(2,3,6-trifluorophenyl)[(3,3,3-trifluoropropyl)sulfonyl]methyl]pyridine-2-carboxamide] | 146 to 148 °C | 5 to 50
21 | Cc1cc(C(=O)NCO)ncc1C(c1c(F)ccc(F)c1F)S(=O)(=O)CCC(F)(F)Cl (stereo not drawn) [Example 35, 5-[[(3-Chloro-3,3-difluoropropyl)sulfonyl](2,3,6-trifluorophenyl)methyl]-N-(hydroxymethyl)-4-methylpyridine-2-carboxamide] | 150 to 152 °C | 5 to 50
22 | Cc1cc(C(N)=O)ncc1C(c1c(F)ccc(F)c1F)S(=O)(=O)CCC(F)(F)C(F)(F)F (stereo not drawn) [Example 19, 4-Methyl-5-[[(3,3,4,4,4-pentafluorobutyl)sulfonyl](2,3,6-trifluorophenyl)methyl]pyridine-2-carboxamide] | 155 to 156 °C | 5 to 50
23 | Nc1cc(=O)n2cc(Cl)c(C(c3c(F)ccc(F)c3F)S(=O)(=O)CCC(F)(F)F)cc2n1 (stereo not drawn) [Example 51, 2-Amino-7-chloro-8-[(2,3,6-trifluorophenyl)[(3,3,3-trifluoropropyl)sulfonyl]methyl]-4H-pyrido[1,2-a]pyrimidin-4-one] | 247 °C (dec.) | ≤ 5

Further lines, with some results ahead:

Row | melting point | SMILES | EC50 [1] [nM]
24 | 202 to 204 °C | CCCS(=O)(=O)C(c1cnc(C(N)=O)cc1C)c1c(F)ccc(F)c1F (stereo not drawn) | –
25 | 85 to 87 °C | Cc1cc(C(=O)O)ncc1C(c1c(F)ccc(F)c1F)S(=O)(=O)CCC(F)(F)F (stereo not drawn) | –
26 | 240 to 241 °C | Cc1cc(C(N)=O)ncc1C(c1c(F)ccc(F)c1F)S(=O)(=O)CC(C)C (stereo not drawn) | –
27 | 170 to 172 °C | Cc1cc(C(N)=O)ncc1C(c1c(F)ccc(F)c1F)S(=O)(=O)CCC(F)=C(F)F (stereo not drawn) | –
28 | 201 to 203 °C | Cc1cc(C(N)=O)ncc1C(c1c(F)ccc(F)c1F)S(=O)(=O)CCCC(F)(F)F (stereo not drawn) | –
29 | 160 to 161 °C | Cc1cc(C(N)=O)ncc1C(c1c(F)ccc(F)c1F)S(=O)(=O)CC(F)(F)C(F)F (stereo not drawn) | –
30 | 222 to 223 °C | Cc1cc(C(N)=O)ncc1C(c1c(F)ccc(F)c1F)S(=O)(=O)CC1CC1 (stereo not drawn) | –
31 | 143 to 144 °C | Cc1cc(C(N)=O)ncc1C(c1c(F)ccc(F)c1F)S(=O)(=O)CCC(C)(C)C (stereo not drawn) | –
32 | 194 to 196 °C | Cc1cc(C(N)=O)ncc1C(c1c(F)ccc(F)c1F)S(=O)(=O)CCCF (stereo not drawn) | –
33 | 191.5 to 192 °C | Cc1cc(C(N)=O)ncc1C(c1c(F)ccc(F)c1F)S(=O)(=O)CCC(F)F (stereo not drawn) | –
